Tests used:
[1] = Toxicity test, 3H-thymidine incorporation (total DNA synthesis, cell growth); type: cell-based; conditions: cells in growth phase (cell line not given); 48 hours treatment, 6 hours 3H-thymidine pulse; highest concentration evaluated 100 μM; read-out: Toxic Conc. (TC50) Cell Growth
Description: Cells in growth phase were treated with serial concentrations of compound for 48 hours and pulse labeled with 3H-thymidine for 6 hours. The cells were then harvested to measure total DNA synthesis in the presence or absence of the compound (Kucera et al., Antiviral Chemistry and Chemotherapy, 9: i57-i65 (1998)).
TC50 determinations were calculated by the method of Chou et al. Elsvier: Amsterdam, 1985, as described in Piantadosi C. et al., Journal of Medicinal Chemistry, 34: 1408-1414 (1991). The TC50 for KPC-15 and KPC-11 were unable to be determined since at the highest concentration evaluated (100 μM), 50% toxicity was not observed. Thus, KPC-15 and KPC-11, lacked significant toxicity in vitro with the TC50>100 μM.

[2] = test system: RSV (Long strain); experiment: RSV plaque assay with Hep-2 cell monolayers; type: cell-based; conditions: for EC50: human respiratory syncytial virus, 144 h, Hep-2 cell monolayers, RSV Long strain, 6 days of incubation, 0.4-50 μM in triplicate, read-out: Effective Conc. (EC50) RSV Plaque Count
Description: The ability of the active compounds to inhibit the growth of RSV was determined using a standard plaque assay with Hep-2 cell monolayers. The cell monolayers were infected with RSV (Long strain obtained from the American Tissue Culture Catalog, Cat# VR-26). After one hour of virus attachment, the cells were overlaid with medium containing methyl cellulose with or without serial concentrations of compound (0.4-50 μM). Each concentration was tested in triplicate. After 6 days of incubation, the overlay medium was aspirated and the cells fixed with absolute ethanol and stained with crystal violet to visualize RSV plaques and cell cytotoxicity using a 4× dissecting microscope. To determine the percent inhibition of RSV plaque formation, the mean number of RSV plaques in the presence of compound was divided by the number of RSV plaques in the control without added compounds. The quotient was subtracted from 1 and then multiplied by 100% to establish the % inhibition.

## CCCCCCCCCC(=O)NCC(COP(=O)([O-])OCC[N+](C)(C)C)OCC (centres unmarked) [KPC-11, decylamido-2-ethoxypropylphosphocholine]
[1]
  CC50 at 48 h: > 100 µM
[2]
  SI (Selectivity Index: TC50 Cell Growth divided by EC50 Plaque Inhibition): >28
  in vitro activity against RSV (in words): potent in vitro activity against RSV
  EC50: 3.5 µM

## CCCCCCCCCCCC(=O)NCC(COP(=O)([O-])OCC[N+](C)(C)C)OCC (centres unmarked) [KPC-15, 3-dodecylamido-2-ethoxypropylphosphocholine]
[1]
  CC50 at 48 h: > 100 µM
[2]
  SI (Selectivity Index: TC50 Cell Growth divided by EC50 Plaque Inhibition): >42
  in vitro activity against RSV (in words): potent in vitro activity against RSV
  EC50: 2.4 µM
